In paper PMC10247784, “Physiological activation of human and mouse bitter taste receptors by bile acids” (Communications Biology, 2023):
Where “and” joins values, the source holds several entries; their conditions need not be identical. Equal entries are not always repeated.

Target: T1, human TAS2R4 (Homo sapiens, UniProt Q9NYW5)
T1 construct: expressed in transfected cells; host or cells: HEK293T-Gα16gust44
T1 sequence (Q9NYW5 1-299): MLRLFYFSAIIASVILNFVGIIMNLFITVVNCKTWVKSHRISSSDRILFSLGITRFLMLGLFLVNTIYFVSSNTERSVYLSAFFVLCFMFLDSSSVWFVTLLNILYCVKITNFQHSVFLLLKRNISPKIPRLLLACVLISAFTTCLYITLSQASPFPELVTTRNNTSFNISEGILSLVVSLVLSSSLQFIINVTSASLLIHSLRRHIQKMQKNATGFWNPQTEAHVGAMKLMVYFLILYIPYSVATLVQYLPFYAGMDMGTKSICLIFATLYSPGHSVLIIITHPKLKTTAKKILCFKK
Test: Calcium imaging assay (FLIPR), HEK293T-Gα16gust44 cells transfected with human TAS2R4
Format: cell-based
Outline: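 Calcium responses via FLIPR in receptor-transfected HEK293T-Gα16gust44 cells (Fluo-4-AM, 2.5 mM probenecid), after mock-signal subtraction and normalization to baseline and buffer (ΔF/F). Threshold concentration is the lowest dose differing from mock cells at p < 0.01 (Student's t-test), from three biological replicates in duplicate.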

C[C@H](CCC(=O)NCCS(=O)(=O)O)[C@H]1CC[C@H]2[C@@H]3CC[C@@H]4C[C@H](O)CC[C@]4(C)[C@H]3CC[C@]12C [Taurolithocholic Acid, taurolithocholic acid]
Efficacy = maximal amplitude (ΔF/F) (TAS2R4, bile acids, mean): 0.1385
Efficacy (maximal amplitude ΔF/F), individual data points (TAS2R4, bile acids, single replicates, listed as TLCA): 0.1344 and 0.1516 and 0.119 and 0.1444 and 0.143
RLU, fluorescence trace (Time (s) 0): 0 RLU
RLU, fluorescence trace (Time (s) 2): -14.866 RLU
RLU, fluorescence trace (Time (s) 4): -10.9022 RLU
RLU, fluorescence trace (Time (s) 6): -0.9261 RLU
RLU, fluorescence trace (Time (s) 8): -7.834 RLU
RLU, fluorescence trace (Time (s) 12): -12.8379 RLU
RLU, fluorescence trace (Time (s) 14): 6.067 RLU
RLU, fluorescence trace (Time (s) 16): 3.969 RLU
RLU, fluorescence trace (Time (s) 18): -13.8081 RLU
RLU, fluorescence trace (Time (s) 18.766 (TCA, TLCA: 18.782)): -6.318 RLU
RLU, fluorescence trace (Time (s) 20.781 (TCA, TLCA: 20.782)): 0.7554 RLU
RLU, fluorescence trace (Time (s) 22.781 (TCA, TLCA: 22.782)): 22.9324 RLU
RLU, fluorescence trace (Time (s) 24.781 (TCA, TLCA: 24.782)): 4.9 RLU
RLU, fluorescence trace (Time (s) 26.781 (TCA, TLCA: 26.782)): 24.977 RLU
RLU, fluorescence trace (Time (s) 28.781 (TCA, TLCA: 28.782)): 22.993 RLU
RLU, fluorescence trace (Time (s) 30.781 (TCA, TLCA: 30.782)): 49.0114 RLU
RLU, fluorescence trace (Time (s) 32.781 (TCA, TLCA: 32.782)): 81.1426 RLU
RLU, fluorescence trace (Time (s) 34.781 (TCA, TLCA: 34.782)): 109.126 RLU
RLU, fluorescence trace (Time (s) 36.781 (TCA, TLCA: 36.782)): 126.942 RLU
RLU, fluorescence trace (Time (s) 38.781 (TCA, TLCA: 38.782)): 159.412 RLU
RLU, fluorescence trace (Time (s) 40.781 (TCA, TLCA: 40.782)): 175 RLU
RLU, fluorescence trace (Time (s) 42.781 (TCA, TLCA: 42.782)): 193.772 RLU
RLU, fluorescence trace (Time (s) 44.781 (TCA, TLCA: 44.782)): 218.413 RLU
RLU, fluorescence trace (Time (s) 46.781 (TCA, TLCA: 46.782)): 198.067 RLU
RLU, fluorescence trace (Time (s) 48.781 (TCA, TLCA: 48.782)): 224.737 RLU
RLU, fluorescence trace (Time (s) 50.781 (TCA, TLCA: 50.782)): 242.508 RLU
RLU, fluorescence trace (Time (s) 52.781 (TCA, TLCA: 52.782)): 256.995 RLU
RLU, fluorescence trace (Time (s) 54.781 (TCA, TLCA: 54.782)): 227.079 RLU
RLU, fluorescence trace (Time (s) 56.781 (TCA, TLCA: 56.782)): 225.961 RLU
RLU, fluorescence trace (Time (s) 58.781 (TCA, TLCA: 58.782)): 271.056 RLU
RLU, fluorescence trace (Time (s) 60.781 (TCA, TLCA: 60.782)): 261.6 RLU
RLU, fluorescence trace (Time (s) 62.781 (TCA, TLCA: 62.782)): 251.574 RLU
RLU, fluorescence trace (Time (s) 64.781 (TCA, TLCA: 64.782)): 292.569 RLU
RLU, fluorescence trace (Time (s) 66.781 (TCA, TLCA: 66.782)): 280.396 RLU
RLU, fluorescence trace (Time (s) 68.781 (TCA, TLCA: 68.782)): 265.03 RLU
RLU, fluorescence trace (Time (s) 70.781 (TCA, TLCA: 70.782)): 284.572 RLU
RLU, fluorescence trace (Time (s) 72.781 (TCA, TLCA: 72.782)): 284.878 RLU
RLU, fluorescence trace (Time (s) 74.781 (TCA, TLCA: 74.782)): 290.176 RLU
RLU, fluorescence trace (Time (s) 76.781 (TCA, TLCA: 76.782)): 292.885 RLU
RLU, fluorescence trace (Time (s) 78.781 (TCA, TLCA: 78.782)): 302.496 RLU
RLU, fluorescence trace (Time (s) 80.781 (TCA, TLCA: 80.782)): 299.577 RLU
RLU, fluorescence trace (Time (s) 82.781 (TCA, TLCA: 82.782)): 289.637 RLU
RLU, fluorescence trace (Time (s) 84.781 (TCA, TLCA: 84.782)): 284.791 RLU
RLU, fluorescence trace (Time (s) 86.781 (TCA, TLCA: 86.782)): 284.228 RLU
RLU, fluorescence trace (Time (s) 88.781 (TCA, TLCA: 88.782)): 289.096 RLU
RLU, fluorescence trace (Time (s) 90.781 (TCA, TLCA: 90.782)): 288.658 RLU
RLU, fluorescence trace (Time (s) 92.781 (TCA, TLCA: 92.782)): 295.597 RLU
RLU, fluorescence trace (Time (s) 94.781 (TCA, TLCA: 94.782)): 300.252 RLU
RLU, fluorescence trace (Time (s) 96.781 (TCA, TLCA: 96.782)): 303.134 RLU
RLU, fluorescence trace (Time (s) 98.781 (TCA, TLCA: 98.782)): 268.467 RLU
RLU, fluorescence trace (Time (s) 100.781 (TCA, TLCA: 100.782)): 282.827 RLU
RLU, fluorescence trace (Time (s) 102.781 (TCA, TLCA: 102.782)): 280.287 RLU
RLU, fluorescence trace (Time (s) 104.781 (TCA, TLCA: 104.782)): 297.596 RLU
RLU, fluorescence trace (Time (s) 106.781 (TCA, TLCA: 106.782)): 261.785 RLU
RLU, fluorescence trace (Time (s) 108.781 (TCA, TLCA: 108.782)): 279.776 RLU
RLU, fluorescence trace (Time (s) 110.781 (TCA, TLCA: 110.782)): 253.834 RLU
RLU, fluorescence trace (Time (s) 112.781 (TCA, TLCA: 112.782)): 272.21 RLU
RLU, fluorescence trace (Time (s) 114.781 (TCA, TLCA: 114.782)): 268.219 RLU
RLU, fluorescence trace (Time (s) 116.781 (TCA, TLCA: 116.782)): 268.998 RLU
RLU, fluorescence trace (Time (s) 118.781 (TCA, TLCA: 118.782)): 262.891 RLU
RLU, fluorescence trace (Time (s) 120.781 (TCA, TLCA: 120.782)): 267.293 RLU
RLU, fluorescence trace (Time (s) 122.781 (TCA, TLCA: 122.782)): 280.896 RLU
RLU, fluorescence trace (Time (s) 124.781 (TCA, TLCA: 124.782)): 273.898 RLU
RLU, fluorescence trace (Time (s) 126.781 (TCA, TLCA: 126.782)): 249.374 RLU
RLU, fluorescence trace (Time (s) 128.781 (TCA, TLCA: 128.782)): 270.269 RLU
RLU, fluorescence trace (Time (s) 130.781 (TCA, TLCA: 130.782)): 267.674 RLU
RLU, fluorescence trace (Time (s) 132.781 (TCA, TLCA: 132.782)): 259.914 RLU
RLU, fluorescence trace (Time (s) 134.781 (TCA, TLCA: 134.782)): 243.112 RLU
RLU, fluorescence trace (Time (s) 136.781 (TCA, TLCA: 136.782)): 250.545 RLU
RLU, fluorescence trace (Time (s) 137.547): 251.257 RLU
RLU, fluorescence trace (Time (s) 143.547): 215.734 RLU
RLU, fluorescence trace (Time (s) 149.547): 237.866 RLU
RLU, fluorescence trace (Time (s) 155.547): 193.672 RLU
RLU, fluorescence trace (Time (s) 161.547): 207.578 RLU
RLU, fluorescence trace (Time (s) 167.547): 205.902 RLU
RLU, fluorescence trace (Time (s) 173.547): 204.036 RLU
RLU, fluorescence trace (Time (s) 179.547): 180.442 RLU
RLU, fluorescence trace (Time (s) 185.547): 185.763 RLU
RLU, fluorescence trace (Time (s) 191.547): 137.563 RLU
RLU, fluorescence trace (Time (s) 197.547): 147.254 RLU
RLU, fluorescence trace (Time (s) 203.547): 133.472 RLU
RLU, fluorescence trace (Time (s) 209.547): 90.5191 RLU
RLU, fluorescence trace (Time (s) 215.547): 65.3811 RLU
RLU, fluorescence trace (Time (s) 221.547): 77.9879 RLU
RLU, fluorescence trace (Time (s) 227.547): 99.7214 RLU
RLU, fluorescence trace (Time (s) 233.547): 126.783 RLU
RLU, fluorescence trace (Time (s) 239.547): 132.165 RLU
RLU, fluorescence trace (Time (s) 245.547): 104.275 RLU
RLU, fluorescence trace (Time (s) 293.547): 136.191 RLU
RLU, fluorescence trace (Time (s) 299.547): 118.82 RLU
RLU, fluorescence trace (Time (s) 305.547): 140.647 RLU
RLU, fluorescence trace (Time (s) 311.547): 122.148 RLU
RLU, fluorescence trace (Time (s) 317.547): 88.8315 RLU
RLU, fluorescence trace (Time (s) 323.547): 111.642 RLU
RLU, fluorescence trace (Time (s) 329.547): 124.756 RLU
RLU, fluorescence trace (Time (s) 335.547): 109.477 RLU
RLU, fluorescence trace (Time (s) 341.547): 98.825 RLU
RLU, fluorescence trace (Time (s) 347.547): 92.346 RLU
RLU, fluorescence trace (Time (s) 353.547): 124.878 RLU
RLU, fluorescence trace (Time (s) 359.547): 119.545 RLU
Activation threshold concentration TAS2R4 (lowest concentration with significantly increased fluorescence vs empty vector (p < 0.01)): 1 µM
